Reference: article PMC8400246, “Antimicrobial Activity and Action Mechanisms of Arg-Rich Short Analog Peptides Designed from the C-Terminal Loop Region of American Oyster Defensin (AOD)” (Marine Drugs, 2021)
Positions of bridges follow the written chain, without caps; N, C: chain ends. Residues, ends and D or L forms follow the SMILES beside them.

Experiments:
B. subtilis KCTC1021 = assay: Ultrasensitive radial diffusion assay (URDA), MEC; assay type: cell-based, Bacillus subtilis; details: B. subtilis KCTC1021, Gram +, 10 mM phosphate buffer pH 6.6, 37 °C, X-intercept of clearing zone vs log10 concentration, triplicate, averaged
Description: (§1) The antimicrobial activity of the AOD analogs was assessed with an ultrasensitive radial diffusion assay (URDA), as described previously. The antimicrobial activity of the analogs (from 31.3 to 1000 μg/mL, 5 μL volume) was tested against several bacteria, including Bacillus subtilis KCTC1021, Streptococcus mutans KCCM40105, Aeromonas hydrophila KCTC2358, Escherichia coli D31, E. coli ML35p, Pseudomonas aeruginosa KCTC2004, Salmonella enterica KCTC2514, and Shigella sonnei KCTC2009. In addition, Cutibacterium acnes KCTC3314, Staphylococcus epidermidis KCTC1917, and Candida albicans KCTC7965 were used for the anti-acne activity test. All except C. acnes KCTC3314 were grown overnight for 18 h in tryptic soy broth (TSB; for bacteria) or Sabouraud dextrose broth (SDB; for C. albicans) at the appropriate temperature (25 °C for A. hydrophila, 37 °C for the others). C. acnes was grown for 72 h in reinforced clostridial medium (RCM) under anaerobic conditions with an anaerobic gas-generating pouch (GasPak EZ; Becton Dickinson and Company, Sparks, MD, USA) at 37 °C. Following overnight or 72-h incubation, the bacterial and C. albicans suspensions were diluted to a McFarland turbidity standard level of 0.5 (Vitek Colorimeter #52-1210; Hach, Loveland, CO, USA) corresponding to approximately 10^8 colony forming units (CFU)/mL for bacteria and 10^6 CFU/mL for C. albicans. Diluted bacterial or C. albicans suspension (0.5 mL) was added to 9.5 mL underlay gel containing 5 × 10^6 or 5 × 10^4 CFU/mL in 10 mM phosphate buffer (pH 6.6) with 0.03% TSB (or RCM) or 0.03% SDB and 1% Type I low-electroendosmosis agarose. The AOD analogs were serially diluted two-fold in 5 µL acidified water (0.01% acetic acid; HAc) and each dilution was added to 2.5-mm diameter wells in the 1-mm thick underlay gel. After incubation for 3 h at either 25 °C (for A. hydrophila) or 37 °C (for the others), the bacterial or yeast suspension was overlaid with 10 mL double-strength overlay gel containing 6% TSB, RCM, or SDB with 10 mM phosphate buffer (pH 6.6) in 1% agarose. Plates were incubated for an additional 18–24 h (72 h for C. acnes) and the clearing zone diameters were measured. After subtracting the diameter of the well (2.5 mm), the clearing zone diameter was expressed in units (0.1 mm = 1 U).
(§2) The minimal effective concentration (MEC; μg/mL) of the AOD analogs was calculated as the X-intercept of a plot of clearing zone diameter units against the log10 of the peptide concentration. Piscidin 1, an α-helical AMP isolated from hybrid striped bass (Morone saxatilis × Morone chrysops) was used as a positive control.

C. acnes KCTC3314 = assay: Ultrasensitive radial diffusion assay (URDA), MEC; assay type: cell-based, Cutibacterium acnes; details: C. acnes KCTC3314, Gram +, anaerobic, RCM, 72 h, 37 °C, triplicate, averaged
Description: as §1, §2

S. epidermidis KCTC1917 = assay: Ultrasensitive radial diffusion assay (URDA), MEC; assay type: cell-based, Staphylococcus epidermidis; details: S. epidermidis KCTC1917, Gram +, pH 6.6, 37 °C, triplicate, averaged
Description: as §1, §2

S. mutans KCCM40105 = assay: Ultrasensitive radial diffusion assay (URDA), MEC; assay type: cell-based, Streptococcus mutans; details: S. mutans KCCM40105, Gram +, pH 6.6, 37 °C, triplicate, averaged
Description: as §1, §2

A. hydrophila KCTC2358 = assay: Ultrasensitive radial diffusion assay (URDA), MEC; assay type: cell-based, Aeromonas hydrophila; details: A. hydrophila KCTC2358, Gram -, pH 6.6, 25 °C, triplicate, averaged
Description: as §1, §2

E. coli D31 = assay: Ultrasensitive radial diffusion assay (URDA), MEC; assay type: cell-based, Escherichia coli; details: E. coli D31, Gram -, pH 6.6, 37 °C, triplicate, averaged
Description: as §1, §2

E. coli ML35p = assay: Ultrasensitive radial diffusion assay (URDA), MEC; assay type: cell-based, Escherichia coli; details: Gram -, pH 6.6, 37 °C, triplicate, averaged
Description: as §1, §2

P. aeruginosa KCTC2004 = assay: Ultrasensitive radial diffusion assay (URDA), MEC; assay type: cell-based, Pseudomonas aeruginosa; details: P. aeruginosa KCTC2004, Gram -, pH 6.6, 37 °C, triplicate, averaged
Description: as §1, §2

S. enterica KCTC2514 = assay: Ultrasensitive radial diffusion assay (URDA), MEC; assay type: cell-based, Salmonella enterica; details: S. enterica KCTC2514, Gram -, pH 6.6, 37 °C, triplicate, averaged
Description: as §1, §2

S. sonnei KCTC2009 = assay: Ultrasensitive radial diffusion assay (URDA), MEC; assay type: cell-based, Shigella sonnei; details: S. sonnei KCTC2009, Gram -, pH 6.6, 37 °C, triplicate, averaged
Description: as §1, §2

C. albicans KCTC7965 = assay: Ultrasensitive radial diffusion assay (URDA), MEC; assay type: cell-based, Candida albicans; details: C. albicans KCTC7965, yeast, SDB, pH 6.6, 37 °C, triplicate, averaged
Description: as §1, §2

[1] = tested on: tested strains (bacteria and the yeast C. albicans); assay: URDA, overall antimicrobial activity; assay type: cell-based; details: all tested strains
Description: The antimicrobial activity of the AOD analogs was assessed with an ultrasensitive radial diffusion assay (URDA), as described previously. The antimicrobial activity of the analogs (from 31.3 to 1000 μg/mL, 5 μL volume) was tested against several bacteria, including Bacillus subtilis KCTC1021, Streptococcus mutans KCCM40105, Aeromonas hydrophila KCTC2358, Escherichia coli D31, E. coli ML35p, Pseudomonas aeruginosa KCTC2004, Salmonella enterica KCTC2514, and Shigella sonnei KCTC2009. In addition, Cutibacterium acnes KCTC3314, Staphylococcus epidermidis KCTC1917, and Candida albicans KCTC7965 were used for the anti-acne activity test. All except C. acnes KCTC3314 were grown overnight for 18 h in tryptic soy broth (TSB; for bacteria) or Sabouraud dextrose broth (SDB; for C. albicans) at the appropriate temperature (25 °C for A. hydrophila, 37 °C for the others). C. acnes was grown for 72 h in reinforced clostridial medium (RCM) under anaerobic conditions with an anaerobic gas-generating pouch (GasPak EZ; Becton Dickinson and Company, Sparks, MD, USA) at 37 °C. […] Plates were incubated for an additional 18–24 h (72 h for C. acnes) and the clearing zone diameters were measured. […]
The minimal effective concentration (MEC; μg/mL) of the AOD analogs was calculated as the X-intercept of a plot of clearing zone diameter units against the log10 of the peptide concentration. […]

100-bp DNA ladder = assay: DNA binding assay (electrophoretic mobility shift); details: 1 μg analog with 0.2 μg 100-bp DNA ladder, 37 °C, 60 min, 1.8% agarose gel with EtBr
Description: To evaluate the binding ability of the AOD analogs to intracellular components, a DNA binding assay was performed as previously described with minor modifications. The DNA-binding ability of the AOD analogs was assessed through observation of the inhibition of migration of DNA bands through agarose gels. A commercial 100-bp DNA ladder (0.2 μg) (Bioneer Corp., Daejeon, South Korea) was mixed with each analog (1 μg) in 0.01% acetic acid, and the resulting mixture was incubated at 37 °C for 60 min and then electrophoresed on 1.8% agarose gels containing 0.5 μg/mL ethidium bromide (EtBr). HAc (0.01%) was used as a negative control.
To determine the concentration required for the interaction of AOD analogs with DNA, a DNA binding assay was performed with various mixing ratios of analog A3 (0.25–1.0 μg/mL) and 100-bp DNA ladder (0.1–0.4 μg), as described above.

[2] = tested on: 100-bp DNA ladder and DNA polymerase; assay: Competitive binding between DNA and DNA polymerase; details: 1 μg peptide, 0.2 μg 100-bp DNA ladder, DNA polymerase 1.0 μL (5 units/μL), 37 °C, 60 min
Description: To assess the preferential binding ability of the AOD analogs to DNA or DNA polymerase, a competitive binding assay was performed. Briefly, AOD analog was added to a reaction mixture containing DNA or DNA polymerase and incubated for 60 min at 37 °C. […] Piscidin 1 and 0.01% HAc were the positive and negative controls, respectively.

[3] = tested on: E. coli DH5α genomic DNA (16S ribosomal gene); assay: DNA amplification (PCR) inhibition assay; assay type: biochemical, Escherichia coli; details: 1.5 µg of each analog, 0.2 µg E. coli DH5α gDNA, 30 cycles
Description: To determine whether AOD analogs target DNA amplification, the ability of the analogs to inhibit DNA amplification was assessed using E. coli DH5α genomic DNA (gDNA). Total gDNA was extracted using the phenol–chloroform method, as described previously. To assess the inhibition of DNA amplification, 1.5 µg AOD analog was added to the polymerase chain reaction (PCR) mixture. The PCR solution consisted of 0.2 µg purified gDNA, 5 µL 10× PCR buffer with MgCl2, 4 µL of each dNTP at 2.5 mM, 0.25 μL Ex Taq polymerase (Takara Bio, Shiga, Japan), 2.0 pmol each of primers 27F (5′-[…]-3′) and 1492R (5′-TACGGCTACCTTGTTACGA-CTT-3′), and up to 50 µL sterile distilled water. The PCR thermal cycling conditions were as follows: initial denaturation at 94 °C for 5 min; 30 cycles of 94 °C for 30 s, 55 °C for 30 s, and 72 °C for 2 min; and a final extension for 10 min at 72 °C. PCR was conducted using a Type 9700 Thermal Cycler (Perkin-Elmer, Norwalk City, CA, USA). The PCR products were confirmed through 1.5% agarose gel electrophoresis with 0.5 μg/mL EtBr. Piscidin 1 was used as a positive control and 0.01% HAc was used as a negative control.

| Compound | Minimal Effective Concentration (B. subtilis KCTC1021) [µg/mL] | Minimal Effective Concentration (C. acnes KCTC3314) [µg/mL] | Minimal Effective Concentration (S. epidermidis KCTC1917) [µg/mL] | Minimal Effective Concentration (S. mutans KCCM40105) [µg/mL] | Minimal Effective Concentration (A. hydrophila KCTC2358) [µg/mL] | Minimal Effective Concentration (E. coli D31) [µg/mL] | Minimal Effective Concentration (E. coli ML35p) [µg/mL] | Minimal Effective Concentration (P. aeruginosa KCTC2004) [µg/mL] | Minimal Effective Concentration (S. enterica KCTC2514) [µg/mL] | Minimal Effective Concentration (S. sonnei KCTC2009) [µg/mL] | Minimal Effective Concentration (C. albicans KCTC7965) [µg/mL] | antimicrobial activity (in words) [1] | electrophoretic mobility of the DNA (DNA-binding ability) (100-bp DNA ladder) | competitive binding between DNA and DNA polymerase (electrophoretic mobility of DNA) [2] | inhibition of DNA amplification (PCR) [3] |
| --- | --- | --- | --- | --- | --- | --- | --- | --- | --- | --- | --- | --- | --- | --- | --- |
| CC(C)C[C@@H]1NC(=O)[C@H](CO)NC(=O)CNC(=O)[C@H](C)NC(=O)[C@@H](N)CSSC[C@@H](C(=O)O)NC(=O)[C@H]([C@@H](C)O)NC(=O)[C@H](CC(C)C)NC(=O)[C@H](CCCNC(=N)N)NC1=O [Analog A0] (H-CAGSLRLTC-OH; disulfide 1-9) | >100.0 | >100.0 | >100.0 | >100.0 | >100.0 | >100.0 | >100.0 | >100.0 | >100.0 | >100.0 | >125.0 | no activity against any of the tested strains |  |  |  |
| CC(=O)N[C@H]1CSSC[C@@H](C(N)=O)NC(=O)[C@H](CCCNC(=N)N)NC(=O)[C@H](CC(C)C)NC(=O)[C@H](CCCNC(=N)N)NC(=O)[C@H](CCCNC(=N)N)NC(=O)[C@H](Cc2c[nH]c3ccccc23)NC(=O)CNC(=O)[C@H](C)NC1=O [Analog A1] (Ac-CAGWRRLRC-NH2; disulfide 1-9) | 14.0 | >100.0 | >100.0 | 68.0 | 17.0 | 42.0 | >100.0 | 15.0 | 24.0 | 40.0 | >125.0 | much weaker antimicrobial activity than the other analogs | inhibited | inhibited | partially or completely inhibited |
| CC(C)C[C@@H]1NC(=O)[C@H](CCCNC(=N)N)NC(=O)[C@H](CC(C)C)NC(=O)[C@H](CCCNC(=N)N)NC(=O)[C@H](Cc2c[nH]c3ccccc23)NC(=O)[C@H](CCCNC(=N)N)NC(=O)[C@@H](N)CSSC[C@@H](C(=O)O)NC(=O)[C@H](CCCNC(=N)N)NC1=O [Analog A2] (H-CRWRLRLRC-OH; disulfide 1-9) | 3.8 | >100.0 | 24.0 | 9.9 | 14.0 | 2.0 | 13.0 | 7.6 | 20.0 | 18.0 | >125.0 |  | inhibited | inhibited | did not inhibit |
